Measured values published in ChEMBL document CHEMBL4052800, “Syntheses of cytotoxic novel arctigenin derivatives bearing halogen and alkyl groups on aromatic rings” (Bioorg Med Chem Lett, 2017).

What was measured:
HL-60 [1] = test: Cytotoxicity against human HL60 cells assessed as reduction in cell viability after 48 hrs by WST-8 assay; assay type: functional, cell-based; details: HL-60, 48 h
HL-60 [2] = test: Cytotoxicity against human HL60 cells assessed as reduction in cell viability after 48 hrs by WST-8 assay relative to control; assay type: functional
HeLa = test: Cytotoxicity against human HeLa cells assessed as reduction in cell viability after 48 hrs by WST-8 assay; assay type: functional, cell-based

Compound	EC50 (HL-60 [1])	inhibition (INH) (HL-60 [2])	EC50 (HeLa)
O=C1OC[C@H](Cc2ccccc2)[C@H]1Cc1cccc(O)c1	> 100 µM	45%	
Cc1cccc(C[C@H]2C(=O)OC[C@@H]2Cc2ccccc2)c1	53 µM		
Oc1ccccc1C[C@H]1COC[C@@H]1Cc1ccc(Cl)c(Cl)c1	34 µM		
CCCCOc1ccccc1C[C@H]1COC[C@@H]1Cc1ccc(Cl)c(Cl)c1	20 µM		
Cc1ccccc1C[C@H]1COC(=O)[C@@H]1Cc1ccc(Cl)c(Cl)c1	22 µM		
O=C1OC[C@H](Cc2ccccc2)[C@H]1Cc1ccccc1F	72 µM		
Cc1ccc(C[C@H]2C(=O)OC[C@@H]2Cc2ccccc2)cc1	44 µM		
Oc1cccc(C[C@H]2COC[C@@H]2Cc2ccc(Cl)c(Cl)c2)c1	31 µM		
Clc1ccc(C[C@H]2COC[C@@H]2Cc2ccc3c(c2)OCCO3)cc1Cl	38 µM		
CCCCOc1ccc(C[C@H]2C(=O)OC[C@@H]2Cc2ccccc2)cc1OCCCC	> 100 µM	29%	
Cc1ccc(C[C@H]2COC(=O)[C@@H]2Cc2ccc(Cl)c(Cl)c2)cc1C	16 µM		
COc1ccc(C[C@H]2COC(=O)[C@@H]2Cc2ccc(Cl)c(Cl)c2)cc1OC	24 µM		
CCCCCCCOc1ccccc1C[C@H]1C(=O)OC[C@@H]1Cc1ccccc1	75 µM		
CCCCOc1cc(C[C@H]2C(=O)OC[C@@H]2Cc2ccccc2)ccc1O	35 µM		
CCCCCCCOc1cccc(C[C@H]2C(=O)OC[C@@H]2Cc2ccccc2)c1	81 µM		
COc1ccc(C[C@H]2COC[C@@H]2Cc2ccc(Cl)c(Cl)c2)cc1O	33 µM		
Cc1ccc(C[C@H]2COC[C@@H]2Cc2ccc(Cl)c(Cl)c2)cc1	21 µM		
COc1ccc(C[C@H]2COC(=O)[C@@H]2Cc2ccc(Cl)c(Cl)c2)cc1	37 µM		
CCCCOc1ccc(/C=C2\C(=O)OC[C@@H]2Cc2ccccc2)cc1	58 µM		
O=C1OC[C@H](Cc2ccccc2)[C@H]1Cc1cccc(F)c1	75 µM		
COc1cccc(C[C@H]2C(=O)OC[C@@H]2Cc2ccccc2)c1	66 µM		
COc1ccc(C[C@H]2C(=O)OC[C@@H]2Cc2ccccc2)cc1	67 µM		
Clc1ccc(C[C@H]2COC[C@@H]2Cc2ccc(Cl)c(Cl)c2)cc1Cl	16 µM		
CCCCOc1ccc(C[C@H]2C(=O)OC[C@@H]2Cc2ccccc2)cc1	23 µM		27 µM
Cc1ccccc1C[C@H]1COC[C@@H]1Cc1ccc(Cl)c(Cl)c1	21 µM		

Compound	EC50 (HL-60 [1])	inhibition (INH) (HL-60 [2])	EC50 (HeLa)
Clc1ccc(C[C@H]2COC[C@@H]2Cc2ccc3c(c2)OCO3)cc1Cl	22 µM		
O=C1OC[C@H](Cc2ccccc2)[C@H]1Cc1cc(Cl)cc(Cl)c1	23 µM		17 µM
COc1ccc(C[C@H]2COC[C@@H]2Cc2ccc(Cl)c(Cl)c2)cc1	39 µM		
Cc1ccccc1C[C@H]1C(=O)OC[C@@H]1Cc1ccccc1	57 µM		
CCCCOc1ccccc1C[C@H]1C(=O)OC[C@@H]1Cc1ccccc1	20 µM		
O=C1OC[C@H](Cc2ccc(F)cc2)[C@H]1Cc1ccc(Cl)c(Cl)c1	14 µM		19 µM
COc1cc(C[C@H]2COC(=O)[C@@H]2Cc2ccc(Cl)c(Cl)c2)ccc1O	36 µM		
O=C1OC[C@H](Cc2ccccc2)[C@H]1Cc1ccccc1C(F)(F)F	37 µM		
O=C1OC[C@H](Cc2ccccc2)[C@H]1Cc1ccc(Cl)cc1	36 µM		
O=C1OC[C@H](Cc2ccccc2)[C@H]1Cc1ccc2c(c1)OCO2	57 µM		
Fc1ccc(C[C@H]2COC[C@@H]2Cc2ccc(Cl)c(Cl)c2)cc1	43 µM		
CCCCc1ccc(C[C@H]2COC(=O)[C@@H]2Cc2ccc(Cl)c(Cl)c2)cc1	9.4 µM		27 µM
O=C1OC[C@H](Cc2ccccc2)[C@H]1Cc1ccccc1O	83 µM		
COc1cccc(C[C@H]2COC(=O)[C@@H]2Cc2ccc(Cl)c(Cl)c2)c1	34 µM		
O=C1OC[C@H](Cc2ccccc2)[C@H]1Cc1ccc(F)cc1	57 µM		
O=C1OC[C@H](Cc2cccc(O)c2)[C@H]1Cc1ccc(Cl)c(Cl)c1	48 µM		
CCCCOc1ccc(C[C@H]2COC[C@@H]2Cc2ccccc2)cc1	11 µM		
CCc1ccc(C[C@H]2COC(=O)[C@@H]2Cc2ccc(Cl)c(Cl)c2)cc1	16 µM		
Cc1ccc(C[C@H]2COC[C@@H]2Cc2ccc(Cl)c(Cl)c2)cc1C	36 µM		
C[C@H](Cc1ccccc1)[C@H](C)Cc1ccc(Cl)c(Cl)c1	19 µM		
O=C1OC[C@H](Cc2ccccc2)[C@H]1Cc1cccc(OC(F)(F)F)c1	34 µM		
O=C1OC[C@H](Cc2ccccc2O)[C@H]1Cc1ccc(Cl)c(Cl)c1	33 µM		
Cc1cccc(C[C@H]2COC(=O)[C@@H]2Cc2ccc(Cl)c(Cl)c2)c1	22 µM		
O=C1OC[C@H](Cc2ccccc2)[C@H]1Cc1ccc(OC(F)(F)F)cc1	27 µM		
CCOc1ccccc1C[C@H]1COC[C@@H]1Cc1ccc(Cl)c(Cl)c1	29 µM		

Compound	EC50 (HL-60 [1])	inhibition (INH) (HL-60 [2])	EC50 (HeLa)
O=C1OC[C@H](Cc2ccccc2F)[C@H]1Cc1ccc(Cl)c(Cl)c1	28 µM		
O=C1OC[C@H](Cc2ccccc2)[C@H]1Cc1ccc(Cl)c(Cl)c1	19 µM		26 µM
Fc1cccc(C[C@H]2COC[C@@H]2Cc2ccc(Cl)c(Cl)c2)c1	20 µM		
O=C1OC[C@H](Cc2ccccc2)[C@H]1Cc1ccccc1	77 µM		
O=C1OC[C@H](Cc2ccc(Cl)c(Cl)c2)[C@H]1Cc1ccc(Cl)c(Cl)c1	20 µM		
O=C1OC[C@H](Cc2ccccc2)[C@H]1Cc1ccccc1Cl	37 µM		
O=C1OC[C@H](Cc2ccccc2)[C@H]1Cc1ccc(C(F)(F)F)cc1	22 µM		29 µM
CCCCc1ccc(C[C@H]2COC[C@@H]2Cc2ccc(Cl)c(Cl)c2)cc1	23 µM		
O=C1OC[C@H](Cc2ccccc2)[C@H]1Cc1ccccc1OC(F)(F)F	39 µM		
COc1ccc(C[C@H]2C(=O)OC[C@@H]2Cc2ccccc2)cc1OC	> 100 µM	38%	
O=C1OC[C@H](Cc2ccc3c(c2)OCO3)[C@H]1Cc1ccc(Cl)c(Cl)c1	51 µM		
COc1ccccc1C[C@H]1C(=O)OC[C@@H]1Cc1ccccc1	79 µM		
CCCCOc1cccc(C[C@H]2C(=O)OC[C@@H]2Cc2ccccc2)c1	26 µM		
CCOc1ccccc1C[C@H]1COC(=O)[C@@H]1Cc1ccc(Cl)c(Cl)c1	15 µM		31 µM
O=C1OC[C@H](Cc2ccccc2)[C@H]1Cc1cccc(C(F)(F)F)c1	34 µM		
COc1cc(C[C@H]2COC[C@@H]2Cc2ccc(Cl)c(Cl)c2)ccc1O	21 µM		
O=C1OC[C@H](Cc2ccc(O)cc2)[C@H]1Cc1ccc(Cl)c(Cl)c1	37 µM		
O=C1OC[C@H](Cc2ccccc2)[C@H]1Cc1ccc(O)cc1	88 µM		
COc1cccc(C[C@H]2COC[C@@H]2Cc2ccc(Cl)c(Cl)c2)c1	73 µM		
COc1cc(C[C@@H]2COC(=O)[C@H]2Cc2ccc(O)c(OC)c2)ccc1O	> 100 µM		> 100 µM
O=C1OC[C@H](Cc2ccc3c(c2)OCCO3)[C@H]1Cc1ccc(Cl)c(Cl)c1	28 µM		
CCCCCCCOc1ccc(C[C@H]2C(=O)OC[C@@H]2Cc2ccccc2)cc1	> 100 µM	17%	
O=C1OC[C@H](Cc2ccccc2)[C@H]1Cc1ccc(Cl)cc1Cl	19 µM		23 µM
COc1cc(C[C@H]2C(=O)OC[C@@H]2Cc2ccccc2)ccc1O	93 µM		
Oc1ccc(C[C@H]2COC[C@@H]2Cc2ccc(Cl)c(Cl)c2)cc1	31 µM		

Compound	EC50 (HL-60 [1])	inhibition (INH) (HL-60 [2])	EC50 (HeLa)
COc1ccc(C[C@H]2COC(=O)[C@@H]2Cc2ccc(Cl)c(Cl)c2)cc1O	32 µM		
Clc1ccc(C[C@H]2COC[C@@H]2Cc2ccccc2)cc1Cl	19 µM		
O=C1OC[C@H](Cc2ccccc2)[C@H]1Cc1cccc(Cl)c1	36 µM		
COc1cc(C[C@H]2C(=O)OC[C@@H]2Cc2ccccc2)cc(OC)c1OC	> 100 µM	44%	
Cc1ccc(C[C@H]2COC(=O)[C@@H]2Cc2ccc(Cl)c(Cl)c2)cc1	19 µM		
COc1ccccc1C[C@H]1COC[C@@H]1Cc1ccc(Cl)c(Cl)c1	55 µM		
Fc1ccc(C[C@H]2COC[C@@H]2Cc2ccc(Cl)c(Cl)c2)cc1F	18 µM		
COc1ccc(C[C@H]2COC[C@@H]2Cc2ccc(Cl)c(Cl)c2)cc1OC	16 µM		
COc1ccccc1C[C@H]1COC(=O)[C@@H]1Cc1ccc(Cl)c(Cl)c1	14 µM		24 µM
Fc1ccccc1C[C@H]1COC[C@@H]1Cc1ccc(Cl)c(Cl)c1	51 µM		
COCOc1ccc(C[C@H]2C(=O)OC[C@@H]2Cc2ccccc2)cc1	71 µM		
O=C1OC[C@H](Cc2ccccc2)[C@H]1Cc1ccc(F)c(F)c1	50 µM		
Cc1cccc(C[C@H]2COC[C@@H]2Cc2ccc(Cl)c(Cl)c2)c1	28 µM		
Cc1ccc(C[C@H]2C(=O)OC[C@@H]2Cc2ccccc2)cc1C	35 µM		
O=C1OC[C@H](Cc2ccc(F)c(F)c2)[C@H]1Cc1ccc(Cl)c(Cl)c1	25 µM		
COCOc1ccccc1C[C@H]1C(=O)OC[C@@H]1Cc1ccccc1	76 µM		
CCCCOc1ccc(/C=C2/C(=O)OC[C@@H]2Cc2ccccc2)cc1	> 100 µM	36%	
COCOc1cccc(C[C@H]2C(=O)OC[C@@H]2Cc2ccccc2)c1	80 µM		
CCc1ccc(C[C@H]2COC[C@@H]2Cc2ccc(Cl)c(Cl)c2)cc1	26 µM		
O=C1OC[C@H](Cc2cccc(F)c2)[C@H]1Cc1ccc(Cl)c(Cl)c1	14 µM		20 µM
CCCCOc1ccccc1C[C@H]1COC(=O)[C@@H]1Cc1ccc(Cl)c(Cl)c1	10 µM		> 100 µM
COc1cc(C[C@@H](C)[C@H](C)Cc2ccc(O)c(OC)c2)ccc1O [(-)-DIHYDROGUAIARETICACID]	26 µM		22 µM
COc1cc(C[C@H]2C(=O)OC[C@@H]2Cc2ccc(OC)c(OC)c2)ccc1O [ARCTIGENIN]	12 µM		> 100 µM
COc1cc(C[C@H]2COC(=O)[C@@H]2Cc2ccc(O)c(OC)c2)ccc1O [MATAIRESINOL]	74 µM		> 100 µM
